Experimental data taken from ChEMBL document CHEMBL1140860, “Synthesis and evaluation of dihydroartemisinin and dihydroartemisitene acetal dimers showing anticancer and antiprotozoal activity” (Bioorg Med Chem, 2009).

What was measured:
CCRF-CEM = experiment: Growth inhibition of human CCRF-CEM cells after 48 hrs by sulforhodamine B assay; type: functional
K562 = experiment: Growth inhibition of human K562 cells after 48 hrs by sulforhodamine B assay; type: functional; details: K562, 48 h
MOLT-4 = experiment: Growth inhibition of human MOLT4 cells after 48 hrs by sulforhodamine B assay; type: functional; details: MOLT-4, 48 h
[1] = Growth inhibition of human […] cells after 48 hrs by sulforhodamine B assay; type: functional
SR = experiment: Growth inhibition of human SR cells after 48 hrs by sulforhodamine B assay; type: functional
A549 = experiment: Growth inhibition of human A549 cells after 48 hrs by sulforhodamine B assay; type: functional; details: A549, 48 h
HCC 2998 = experiment: Growth inhibition of human HCC2998 cells after 48 hrs by sulforhodamine B assay; type: functional; details: HCC 2998, 48 h
HCT-116 = experiment: Growth inhibition of human HCT116 cells after 48 hrs by sulforhodamine B assay; type: functional; details: HCT-116, 48 h
HCT-15 = experiment: Growth inhibition of human HCT15 cells after 48 hrs by sulforhodamine B assay; type: functional; details: HCT-15, 48 h
HT-29 = experiment: Growth inhibition of human HT-29 cells after 48 hrs by sulforhodamine B assay; type: functional; details: HT-29, 48 h
KM12 = experiment: Growth inhibition of human KM12 cells after 48 hrs by sulforhodamine B assay; type: functional; details: KM12, 48 h
SW-620 = experiment: Growth inhibition of human SW620 cells after 48 hrs by sulforhodamine B assay; type: functional; details: SW-620, 48 h
SF-268 = experiment: Growth inhibition of human SF268 cells after 48 hrs by sulforhodamine B assay; type: functional; details: SF-268, 48 h
SF-295 = experiment: Growth inhibition of human SF295 cells after 48 hrs by sulforhodamine B assay; type: functional; details: SF-295, 48 h
SF-539 = experiment: Growth inhibition of human SF539 cells after 48 hrs by sulforhodamine B assay; type: functional; details: SF-539, 48 h
SNB-19 = experiment: Growth inhibition of human SNB19 cells after 48 hrs by sulforhodamine B assay; type: functional; details: SNB-19, 48 h
SNB-75 = experiment: Growth inhibition of human SNB75 cells after 48 hrs by sulforhodamine B assay; type: functional; details: SNB-75, 48 h
U-251 = experiment: Growth inhibition of human U251 cells after 48 hrs by sulforhodamine B assay; type: functional; details: U-251, 48 h
LOX IMVI = experiment: Growth inhibition of human LOXIMVI cells after 48 hrs by sulforhodamine B assay; type: functional
M14 = experiment: Growth inhibition of human M14 cells after 48 hrs by sulforhodamine B assay; type: functional; details: M14, 48 h
Malme-3M = experiment: Growth inhibition of human MALME-3M cells after 48 hrs by sulforhodamine B assay; type: functional
SK-MEL-2 = experiment: Growth inhibition of human SK-MEL-2 cells after 48 hrs by sulforhodamine B assay; type: functional; details: SK-MEL-2, 48 h
SK-MEL-28 = experiment: Growth inhibition of human SK-MEL-28 cells after 48 hrs by sulforhodamine B assay; type: functional; details: SK-MEL-28, 48 h
SK-MEL-5 = experiment: Growth inhibition of human SK-MEL-5 cells after 48 hrs by sulforhodamine B assay; type: functional; details: SK-MEL-5, 48 h
UACC-257 = experiment: Growth inhibition of human UACC257 cells after 48 hrs by sulforhodamine B assay; type: functional; details: UACC-257, 48 h
UACC-62 = experiment: Growth inhibition of human UACC62 cells after 48 hrs by sulforhodamine B assay; type: functional; details: UACC-62, 48 h
IGROV-1 = experiment: Growth inhibition of human IGROV1 cells after 48 hrs by sulforhodamine B assay; type: functional; details: IGROV-1, 48 h
OVCAR-3 = experiment: Growth inhibition of human OVCAR-3 cells after 48 hrs by sulforhodamine B assay; type: functional; details: OVCAR-3, 48 h
OVCAR-4 = experiment: Growth inhibition of human OVCAR4 cells after 48 hrs by sulforhodamine B assay; type: functional; details: OVCAR-4, 48 h
OVCAR-5 = experiment: Growth inhibition of human OVCAR5 cells after 48 hrs by sulforhodamine B assay; type: functional; details: OVCAR-5, 48 h
OVCAR-8 = experiment: Growth inhibition of human OVCAR8 cells after 48 hrs by sulforhodamine B assay; type: functional; details: OVCAR-8, 48 h
SK-OV-3 = experiment: Growth inhibition of human SKOV3 cells after 48 hrs by sulforhodamine B assay; type: functional; details: SK-OV-3, 48 h
786-0 = experiment: Growth inhibition of human 786-0 cells after 48 hrs by sulforhodamine B assay; type: functional; details: 786-0, 48 h
A498 = experiment: Growth inhibition of human A498 cells after 48 hrs by sulforhodamine B assay; type: functional; details: A498, 48 h
ACHN = experiment: Growth inhibition of human ACHN cells after 48 hrs by sulforhodamine B assay; type: functional
CAKI-1 = experiment: Growth inhibition of human Caki1 cells after 48 hrs by sulforhodamine B assay; type: functional; details: CAKI-1, 48 h
RXF 393 = experiment: Growth inhibition of human RXF393 cells after 48 hrs by sulforhodamine B assay; type: functional; details: RXF 393, 48 h
SN12C = experiment: Growth inhibition of human SN12C cells after 48 hrs by sulforhodamine B assay; type: functional
TK-10 = experiment: Growth inhibition of human TK10 cells after 48 hrs by sulforhodamine B assay; type: functional; details: TK-10, 48 h
PC-3 = experiment: Growth inhibition of human PC3 cells after 48 hrs by sulforhodamine B assay; type: functional; details: PC-3, 48 h
DU-145 = experiment: Growth inhibition of human DU145 cells after 48 hrs by sulforhodamine B assay; type: functional; details: DU-145, 48 h
MCF7 = experiment: Growth inhibition of human MCF7 cells after 48 hrs by sulforhodamine B assay; type: functional; details: MCF7, 48 h
NCI/ADR-RES = experiment: Growth inhibition of human NCI/ADR-RES cells after 48 hrs by sulforhodamine B assay; type: functional
MDA-MB-231 = experiment: Growth inhibition of human MDA-MB-231 cells after 48 hrs by sulforhodamine B assay; type: functional; details: MDA-MB-231, 48 h
[2] = Growth inhibition of human Hs 578T cells after 48 hrs by sulforhodamine B assay; type: functional
MDA-MB-435 = experiment: Growth inhibition of human MDA-MB-435 cells after 48 hrs by sulforhodamine B assay; type: functional; details: MDA-MB-435, 48 h
MDA-N = experiment: Growth inhibition of human MDA-N cells after 48 hrs by sulforhodamine B assay; type: functional
BT-549 = experiment: Growth inhibition of human BT549 cells after 48 hrs by sulforhodamine B assay; type: functional; details: BT-549, 48 h
T47D = experiment: Growth inhibition of human T47D cells after 48 hrs by sulforhodamine B assay; type: functional
Plasmodium falciparum [3] = experiment: Antimalarial activity after 72 hrs against chloroquine-sensitive Plasmodium falciparum D6 infected in erythrocytes by LDH assay; type: functional, organism-based; details: D6, 72 h
[4] = Selectivity index, ratio of TC50 for african green monkey (Cercopithecus aethiops) Vero cells to IC50 for chloroquine-sensitive Plasmodium falciparum D6; type: toxicity, cell-based
Plasmodium falciparum [5] = experiment: Antimalarial activity after 72 hrs against chloroquine-resistant Plasmodium falciparum W2 infected erythrocytes by LDH assay; type: functional, organism-based; details: W2, 72 h
[6] = Selectivity index, ratio of TC50 for african green monkey (Cercopithecus aethiops) Vero cells to IC50 for chloroquine-resistant Plasmodium falciparum W2; type: toxicity, cell-based
[7] = Cytotoxicity against african green monkey Vero cells after 48 hrs by neutral red assay; type: cell-based; details: chlorocebus sabaeus, read-out: TC50
EKVX = experiment: Growth inhibition of human EKVX cells after 48 hrs by sulforhodamine B assay; type: functional
HOP-62 = experiment: Growth inhibition of human HOP62 cells after 48 hrs by sulforhodamine B assay; type: functional; details: HOP-62, 48 h
HOP-92 = experiment: Growth inhibition of human HOP92 cells after 48 hrs by sulforhodamine B assay; type: functional; details: HOP-92, 48 h
NCI-H226 = experiment: Growth inhibition of human NCI-H226 cells after 48 hrs by sulforhodamine B assay; type: functional; details: NCI-H226, 48 h
NCI-H23 = experiment: Growth inhibition of human NCI-H23 cells after 48 hrs by sulforhodamine B assay; type: functional; details: NCI-H23, 48 h
NCI-H322M = experiment: Growth inhibition of human NCI-H322M cells after 48 hrs by sulforhodamine B assay; type: functional
NCI-H460 = experiment: Growth inhibition of human NCI-H460 cells after 48 hrs by sulforhodamine B assay; type: functional; details: NCI-H460, 48 h
NCI-H522 = experiment: Growth inhibition of human NCI-H522 cells after 48 hrs by sulforhodamine B assay; type: functional; details: NCI-H522, 48 h
COLO 205 = experiment: Growth inhibition of human COLO205 cells after 48 hrs by sulforhodamine B assay; type: functional; details: COLO 205, 48 h

## C[C@H]1[C@@H](OCCCO[C@H]2O[C@@H]3O[C@@]4(C)CC[C@H]5[C@H](C)CC[C@@H]([C@H]2C)[C@@]35OO4)O[C@@H]2O[C@@]3(C)CC[C@H]4[C@H](C)CC[C@@H]1[C@@]24OO3
CCRF-CEM
  GI50: 1.31 µM
K562
  GI50: > 100 µM
MOLT-4
  GI50: 5.95 µM
[1]
  GI50: 4.45 µM
SR
  GI50: 1.98 µM
A549
  GI50: 28.7 µM
HCC 2998
  GI50: 9.65 µM
HCT-116
  GI50: 0.545 µM
HCT-15
  GI50: 0.403 µM
HT-29
  GI50: 0.522 µM
KM12
  GI50: 0.517 µM
SW-620
  GI50: 0.522 µM
SF-268
  GI50: > 100 µM
SF-295
  GI50: > 100 µM
SF-539
  GI50: > 100 µM
SNB-19
  GI50: > 100 µM
SNB-75
  GI50: > 100 µM
U-251
  GI50: > 100 µM
LOX IMVI
  GI50: > 100 µM
M14
  GI50: > 100 µM
Malme-3M
  GI50: > 100 µM
SK-MEL-2
  GI50: > 100 µM
SK-MEL-28
  GI50: > 100 µM
SK-MEL-5
  GI50: 30.5 µM
UACC-257
  GI50: > 100 µM
UACC-62
  GI50: 17.9 µM
IGROV-1
  GI50: 7.68 µM
OVCAR-3
  GI50: > 100 µM
OVCAR-4
  GI50: > 100 µM
OVCAR-5
  GI50: > 100 µM
OVCAR-8
  GI50: > 100 µM
SK-OV-3
  GI50: > 100 µM
786-0
  GI50: 1.41 µM
A498
  GI50: 14.7 µM
ACHN
  GI50: 1.47 µM
CAKI-1
  GI50: 6.95 µM
RXF 393
  GI50: 8 µM
SN12C
  GI50: 4.03 µM
TK-10
  GI50: 2.41 µM
PC-3
  GI50: 3.08 µM
DU-145
  GI50: 100 µM
MCF7
  GI50: 0.652 µM
NCI/ADR-RES
  GI50: 3.64 µM
MDA-MB-231
  GI50: 7.34 µM
[2]
  GI50: 0.62 µM
MDA-MB-435
  GI50: 0.694 µM
MDA-N
  GI50: 1.58 µM
BT-549
  GI50: 2.79 µM
T47D
  GI50: 0.497 µM
Plasmodium falciparum [3]
  IC50: 14 µM
[4]
  selectivity ratio: > 21
Plasmodium falciparum [5]
  IC50: 8.5 µM
[6]
  selectivity ratio: 35
[7]
  CC50 at 48 h: 296 µM
EKVX
  GI50: 5.49 µM
HOP-62
  GI50: > 100 µM
HOP-92
  GI50: > 100 µM
NCI-H226
  GI50: > 100 µM
NCI-H23
  GI50: > 100 µM
NCI-H322M
  GI50: > 100 µM
NCI-H460
  GI50: 31.2 µM
NCI-H522
  GI50: 7.13 µM
COLO 205
  GI50: 0.45 µM
